# pIC50: −log10 of the molar value. Like-named read-outs stand apart in the source and are kept apart here.
# Experiments:
# [1] = tested on: OCI-AML-3 (Human Acute Myeloid Leukemia cell line); assay: Combination Index (Chou-Talalay) of Compound 1 with second therapeutic agents; format: cell-based; conditions: for Combination Index: agent in combination with Compound 1, CI scores across all 3 ratios averaged, OCI-AML-3; for effect of the combination with Compound 1: OCI-AML-3 (FLT3 wildtype)
# Procedure: (§1) Each combination was tested in 3 cell lines: MOML-13 (Human Acute Myeloid Leukemia cell line; Addex Bio), MV-4-11 (Human B Myelomoncytic Leukemia cell line; ATCC), and OCI-AML-3 (Human Acute Myeloid Leukemia cell line).
# (§2) Within this range, 20 dose levels were tested for each combination, with each response determined in duplicate. […] The actual drug concentrations in the ratios were determined from the IC50 values obtained for each individual drug.
# (§3) Raw data was analyzed using Graph Pad Prism, four parameter logistic fits, and Chou-Talalay drug combination analyses. […] For data points with Fe<0, the fractional effect was set to 0.001. Data points with Fe>0.99 or <0.01 were omitted from the Chou-Talalay analysis because the Chou-Talalay analysis fits data to the Log of the fractional effect, with equal weight applied across the range of effect, such that the high and low end of the dose response, very small changes in effect within the range of experimental error erroneously skew the outcome of the model fit.
# (§4) A Combination Index (CI) vs Fractional Effect plot showing the actual combination index plotted vs Fractional effect value was plotted for each combination dose. In this analysis, CI=1 represents additive activity, CI>1 represent less than additive activity (often referred to as antagonism) and CI<1=synergistic activity (better than additive).
# [2] = tested on: MV-4-11 (Human B Myelomoncytic Leukemia cell line); assay: as above; format: cell-based; conditions: for Combination Index: agent in combination with Compound 1, CI scores across all 3 ratios averaged, MV-4-11; for effect of the combination with Compound 1: MV-4-11 (FLT3 homozygous mutant)
# Procedure: as §1, §2, §3, §4
# [3] = tested on: MOML-13 (Human Acute Myeloid Leukemia cell line); assay: as above; format: cell-based; conditions: for Combination Index: agent in combination with Compound 1, CI scores across all 3 ratios averaged, MOML-13; for effect of the combination with Compound 1: MOML-13 (BRCA2 mutant, FLT3 heterozygous)
# Procedure: as §1, §2, §3, §4
# MX-1 (Breast) = assay: Cell Titer-Glo viability: single agent IC50 and Compound 1 + PARP inhibitor matrix (Bliss); format: cell-based; conditions: for pIC50: single agent, read-out: Absolute IC50; for # in matrix with Bliss >5: 6×6 matrix of PARP inhibitor with Compound 1
# Procedure: (§5) The PARP inhibitors used for the study were talazoparib, olaparib and niraparib. […] was used as a reference control. […] For each drug agent on its own, IC50 values in each cell line were determined. Interactions of the combinations of Compound 1 and each PARP inhibitor was assessed as follows: […] Cisplatin and culture media were used as positive and negative control, respectively. The combination activities were assessed using CrownSyn software to determine synergy scores by Bliss Independence and Loewe additivity methods. […] Synergy scores calculated by both Bliss independence model and Loewe additivity model (see Greco, […]., Poch, G., Suhnel, J., Kundi, M., & Bodeker, W. (1992). Consensus on concepts and terminology for combined-action assessment: the […] agreement. […] Without being bound by theory, the Bliss independence model is often applied to asses synergy for non-interacting drugs that elicit their responses independently, e.g., by targeting separate pathways, whereas the Loewe additivity model may be more compatible where both drugs have similar modes of action on the same targets or pathways.
# [4] = tested on: DoTc2 4510 (Uterus/Cervix); assay: as above; format: cell-based; conditions: for pIC50: single agent, read-out: Absolute IC50; for # in matrix with Bliss >5: 6×6 matrix of PARP inhibitor with Compound 1
# Procedure: as §5
# HCC1395 (Breast) = assay: as above; format: cell-based; conditions: for pIC50: single agent, read-out: Absolute IC50; for # in matrix with Bliss >5: 6×6 matrix of PARP inhibitor with Compound 1
# Procedure: as §5
# HCC1806 (Breast) = assay: as above; format: cell-based; conditions: for pIC50: single agent, read-out: Absolute IC50; for # in matrix with Bliss >5: 6×6 matrix of PARP inhibitor with Compound 1
# Procedure: as §5
# DU4475 (Breast) = assay: as above; format: cell-based; conditions: for pIC50: single agent, read-out: Absolute IC50; for # in matrix with Bliss >5: 6×6 matrix of PARP inhibitor with Compound 1
# Procedure: as §5
# HCC1937 (Breast) = assay: as above; format: cell-based; conditions: for pIC50: single agent, read-out: Absolute IC50; for # in matrix with Bliss >5: 6×6 matrix of PARP inhibitor with Compound 1
# Procedure: as §5
# OVCAR-8 (Ovary) = assay: as above; format: cell-based; conditions: for pIC50: single agent, read-out: Absolute IC50; for # in matrix with Bliss >5: 6×6 matrix of PARP inhibitor with Compound 1
# Procedure: as §5
# IGR-OV1 (Ovary) = assay: as above; format: cell-based; conditions: for pIC50: single agent, read-out: Absolute IC50; for # in matrix with Bliss >5: 6×6 matrix of PARP inhibitor with Compound 1
# Procedure: as §5
# Capan-1 (Pancreas) = assay: as above; format: cell-based; conditions: for pIC50: single agent, read-out: Absolute IC50; for # in matrix with Bliss >5: 6×6 matrix of PARP inhibitor with Compound 1
# Procedure: as §5
# SK-OV-3 (Ovary) = assay: as above; format: cell-based; conditions: for pIC50: single agent, read-out: Absolute IC50; for # in matrix with Bliss >5: 6×6 matrix of PARP inhibitor with Compound 1
# Procedure: as §5
# MV4; 11 cell line = assay: Cell Titer-Glo viability, fixed agent + dose response agent combinations; format: cell-based, human; conditions: Homo sapiens
# Procedure: (§6) The additional therapeutic agents for this example were azacitidine (Cayman Chemical Cat No. 11164), decitabine (Sigma Cat No. A3656) and venetoclax (InvivoChem Cat. No. V0001).
# (§7) Cell Culture: Three human acute myeloid leukemia tumor cell lines were used in this study: HL60, MV4;11 and MOLM-13. HL60 and MV4;11 were grown in IMDM base media with 20% and 10% FBS, respectively. MOLM-13 was grown in RPMI 1640 base media with 20% FBS. All culture media contained 2 mM glutamine, 100 units/mL sodium penicillin G, […] gentamicin, and 100 µg/mL streptomycin sulfate. The tumor cells were cultured in tissue culture flasks in a humidified incubator at 37° C., in an atmosphere of 5% CO2 and 95% air. Assay: Tumor cells were seeded in duplicate in a volume of 100 µL/well of media into 96-well micro-culture plates at initial densities low enough to allow for several population doublings (typically three to five) during the indicated incubation period. After a 24 hour incubation, test agents were added to each well. After 72 hours of culture with test articles, cell viability was determined using the Cell Titer-Glo® (Promega G7571) assay. Briefly, Cell Titer-Glo® (Promega G7571) reagents were equilibrated at room temperature for 30 minutes; 100 μL per well was added at endpoint (72 hours). Plates were gently shaken for two minutes and then incubated at room temperature for ten minutes prior to reading luminescence on the BMG Clariostar Plus microplate reader.
# (§8) An IC50 ratio for each combination was calculated from the ratio of the combination IC50 as compared to the applicable no fixed agent (vehicle) control.
# HL-60 cell line = assay: as above; format: cell-based, human; conditions: Homo sapiens
# Procedure: as §6, §7, §8
# MOML-13 cell line = assay: as above; format: cell-based, human; conditions: Homo sapiens
# Procedure: as §6, §7, §8
# [5] = CB-5083 tested previously in subjects; cited from earlier work
smiles,measurement,setting,value
CN(C)CCCOc1ccc(-c2ccc3ncc4c(c3c2)n(C2CCOCC2)c(=O)n4C)cn1 [AZDO156],Combination Index,[1],1.159
same,Combination Index,[2],1.122
same,Combination Index,[3],1.293
N.N.[Cl][Pt][Cl] [Cisplatin],pIC50,MX-1 (Breast),5.18
same,pIC50,[4],4.99
same,pIC50,HCC1395 (Breast),5.32
same,pIC50,HCC1806 (Breast),5.49
same,pIC50,DU4475 (Breast),5.80
same,pIC50,HCC1937 (Breast),4.92
same,pIC50,OVCAR-8 (Ovary),5.04
same,pIC50,IGR-OV1 (Ovary),5.84
same,pIC50,Capan-1 (Pancreas),5.77
same,pIC50,SK-OV-3 (Ovary),5.08
"Nc1ncn([C@H]2C[C@H](O)[C@@H](CO)O2)c(=O)n1 [Decitabine, decitabine, reference compound]",pIC50,MV4; 11 cell line; MV4-11,8.15
same,pIC50,"MV4; 11 cell line; MV4-11, 72 h",6.41
same,pIC50,HL-60 cell line; HL-60,5.39
same,pIC50,"HL-60 cell line; HL-60, 72 h",5.28
same,pIC50,MOML-13 cell line,8.19
same,pIC50,MOML-13 cell line; 72 h,7.97
CC(C)C[C@H](NC(=O)CNC(=O)c1cc(Cl)ccc1Cl)B(O)O [Ixazomib],effect of the combination with Compound 1,[1],antagonistic
same,Combination Index,[1],1.438
same,effect of the combination with Compound 1,[2],antagonistic
same,Combination Index,[2],1.546
same,effect of the combination with Compound 1,[3],antagonistic
same,Combination Index,[3],1.413
Cn1ncnc1[C@H]1c2n[nH]c(=O)c3cc(F)cc(c23)N[C@@H]1c1ccc(F)cc1 [Talazoparib],effect of the combination with Compound 1,[3],strong synergy
same,# in matrix with Bliss >5,MX-1 (Breast),0/36
same,# in matrix with Bliss >5,[4],5/36
same,# in matrix with Bliss >5,HCC1395 (Breast),0/36
same,pIC50,"HCC1395 (Breast); Homo sapiens, 72 h",< 5.30
same,# in matrix with Bliss >5,HCC1806 (Breast),3/36
same,pIC50,"HCC1806 (Breast); Homo sapiens, 72 h",< 5.30
same,# in matrix with Bliss >5,DU4475 (Breast),15/36
same,pIC50,"DU4475 (Breast); Homo sapiens, DU-4475, 72 h",7.52
same,# in matrix with Bliss >5,HCC1937 (Breast),8/36
same,pIC50,HCC1937 (Breast); Homo sapiens,< 5.30
same,# in matrix with Bliss >5,OVCAR-8 (Ovary),6/36
same,pIC50,"OVCAR-8 (Ovary); Homo sapiens, 72 h",< 5.30
same,# in matrix with Bliss >5,IGR-OV1 (Ovary),7/36
same,# in matrix with Bliss >5,Capan-1 (Pancreas),4/36
same,pIC50,"Capan-1 (Pancreas); Homo sapiens, 72 h",5.58
same,# in matrix with Bliss >5,SK-OV-3 (Ovary),13/36
same,pIC50,SK-OV-3 (Ovary); Homo sapiens,< 5.30
Nc1ccn([C@@H]2O[C@H](CO)[C@@H](O)[C@@H]2O)c(=O)n1 [cytarabine],effect of the combination with Compound 1,[1],additive effects
same,effect of the combination with Compound 1,[2],additive effects
same,effect of the combination with Compound 1,[3],additive effects
"Nc1ncn([C@@H]2O[C@H](CO)[C@@H](O)[C@H]2O)c(=O)n1 [Azacitidine, azacitidine, reference compound]",pIC50,"MV4; 11 cell line; MV4-11, MV4, 11, fixed agent Compound 1 - 185 nM, read-out: IC50",6.96
same,pIC50,"HL-60 cell line; HL-60, HL-60, fixed agent Compound 1 - 210 nM, read-out: IC50",5.71
same,pIC50,"MOML-13 cell line; MOML-13, fixed agent Compound 1 - 75 nM, read-out: IC50",6.90
CC1(C)CCC(CN2CCN(c3ccc(C(=O)NS(=O)(=O)c4ccc(NCC5CCOCC5)c([N+](=O)[O-])c4)c(Oc4cnc5[nH]ccc5c4)c3)CC2)=C(c2ccc(Cl)cc2)C1 [Venetoclax],Combination Index,[3],0.730
"O=C(c1cc(Cc2n[nH]c(=O)c3ccccc23)ccc1F)N1CCN(C(=O)C2CC2)CC1 [Olaparib, olaparib]",# in matrix with Bliss >5,MX-1 (Breast),3/36
same,pIC50,MX-1 (Breast),< 5.30
same,# in matrix with Bliss >5,[4],5/36
same,pIC50,[4]; Homo sapiens,< 5.30
same,# in matrix with Bliss >5,HCC1395 (Breast),8/36
same,pIC50,"HCC1395 (Breast); Homo sapiens, 72 h",< 5.30
same,# in matrix with Bliss >5,HCC1806 (Breast),17/36
same,pIC50,"HCC1806 (Breast); Homo sapiens, 72 h",< 5.30
same,# in matrix with Bliss >5,DU4475 (Breast),13/36
same,pIC50,"DU4475 (Breast); Homo sapiens, DU-4475, 72 h",5.34
same,# in matrix with Bliss >5,HCC1937 (Breast),23/36
same,# in matrix with Bliss >5,OVCAR-8 (Ovary),8/36
same,pIC50,"OVCAR-8 (Ovary); Homo sapiens, 72 h",< 5.30
same,# in matrix with Bliss >5,IGR-OV1 (Ovary),12/36
same,pIC50,"IGR-OV1 (Ovary); Homo sapiens, IGROV-1, 72 h",< 5.30
same,# in matrix with Bliss >5,Capan-1 (Pancreas),4/36
same,pIC50,"Capan-1 (Pancreas); Homo sapiens, 72 h",< 5.30
same,# in matrix with Bliss >5,SK-OV-3 (Ovary),10/36
COCC1(CO)C(=O)C2CCN1CC2 (stereo not shown) [APR-246],Combination Index,[1],1.279
same,Combination Index,[2],1.285
same,Combination Index,[3],1.228
"Cc1cc2c(C(N)=O)cccc2n1-c1nc2c(c(NCc3ccccc3)n1)COCC2 [CB-5083, 1-[7,8-dihydro-4-[(phenylmethyl)amino]-5H-pyrano[4,3-d]pyrimidin-2-yl]-2-methyl-1H-indole-4-carboxamide]",visual adverse events,[5],symptoms of visual impairment or other visual adverse events
"NC(=O)c1cccc2cn(-c3ccc([C@@H]4CCCNC4)cc3)nc12 [Niraparib, niraparib]",# in matrix with Bliss >5,MX-1 (Breast),4/36
same,# in matrix with Bliss >5,[4],6/36
same,# in matrix with Bliss >5,HCC1395 (Breast),6/36
same,pIC50,"HCC1395 (Breast); Homo sapiens, 72 h",< 5.30
same,# in matrix with Bliss >5,HCC1806 (Breast),9/36
same,pIC50,"HCC1806 (Breast); Homo sapiens, 72 h",< 5.30
same,# in matrix with Bliss >5,DU4475 (Breast),10/36
same,pIC50,"DU4475 (Breast); Homo sapiens, DU-4475, 72 h",5.99
same,# in matrix with Bliss >5,HCC1937 (Breast),15/36
same,# in matrix with Bliss >5,OVCAR-8 (Ovary),9/36
same,pIC50,"OVCAR-8 (Ovary); Homo sapiens, 72 h",< 5.30
same,# in matrix with Bliss >5,IGR-OV1 (Ovary),7/36
same,pIC50,"IGR-OV1 (Ovary); Homo sapiens, IGROV-1, 72 h",< 5.30
same,# in matrix with Bliss >5,Capan-1 (Pancreas),2/36
same,pIC50,"Capan-1 (Pancreas); Homo sapiens, 72 h",< 5.30
same,# in matrix with Bliss >5,SK-OV-3 (Ovary),8/36

# From patent US20250049800A1, “VCP/p97 INHIBITOR FOR THE TREATMENT OF CANCER” (CASI Pharmaceuticals, Inc., priority 2021, published 2025)
